# Test results: PubChem BioAssay AID330 (DTP/NCI, 2004)
# Where “and” joins values, the source holds several entries; their conditions need not be identical. Equal values may be shown once. Toxic doses and inconclusive results are not listed.
# System: P388 leukemia ip, CD2F1 mice, survival T/C
# Experiment: NCI In Vivo Anticancer Drug Screen. Data for tumor model P388 Leukemia (intraperitoneal) in CD2F1 (CDF1) mice
# Settings: endpoint: median survival time, higher = longer survival
# Outline: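 Mice carrying the transplanted tumor received test compound or vehicle. Survival was recorded in each group, and the value is the treated-group measurement divided by that of the vehicle-treated control group.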
# [1] = dose: 50.0 mg/kg/injection, schedule: Q01DX005 (ip), vehicle: Klucel (hydroxypropylcellulose) (HPC)
# [2] = dose: 100.0 mg/kg/injection, schedule: Q01DX005 (ip), vehicle: Klucel (hydroxypropylcellulose) (HPC)
# [3] = dose: 100.0 mg/kg/injection, schedule: Q04DX003 (ip), vehicle: saline
# [4] = dose: 12.5 mg/kg/injection, schedule: Q01DX009 (ip), vehicle: saline with Tween-80
# [5] = dose: 25.0 mg/kg/injection, schedule: Q01DX009 (ip), vehicle: saline with Tween-80
# [6] = dose: 50.0 mg/kg/injection, schedule: Q01DX009 (ip), vehicle: saline with Tween-80
compound,measurement,setting,value
COc1ccc2nc3cc(Cl)ccc3c(SCC(=O)OCC(=O)[C@@]3(O)CC[C@H]4[C@@H]5CCC6=CC(=O)C=C[C@]6(C)[C@H]5C(=O)C[C@@]43C)c2c1,T/C,"dose: 50.0 mg/kg/injection, schedule: Q01DX009 (ip), vehicle: saline",118 % of control
same,T/C,"dose: 100.0 mg/kg/injection, schedule: Q01DX009 (ip), vehicle: saline",108 % of control
same,T/C,"dose: 200.0 mg/kg/injection, schedule: Q01DX009 (ip), vehicle: saline",110 % of control
COc1ccc(/C=C2\C=C3OCOC3=CC2=O)cc1,T/C,"dose: 2.5 mg/kg/injection, schedule: Q01DX009 (ip), vehicle: saline with Tween-80",100 % of control
same,T/C,"dose: 5.0 mg/kg/injection, schedule: Q01DX009 (ip), vehicle: saline with Tween-80",100 % of control
same,T/C,"dose: 10.0 mg/kg/injection, schedule: Q01DX009 (ip), vehicle: saline with Tween-80",100 % of control
C[O+]=c1cccc2sc(-c3ccccc3)ccc1-2,T/C,[1],99 % of control
same,T/C,[2],108 % of control
Cc1nc(N(C)C)oc(=O)c1Cc1ccccc1,T/C,"dose: 60.0 mg/kg/injection, schedule: Q01DX005 (ip), vehicle: saline with Tween-80",102 % of control
same,T/C,"dose: 120.0 mg/kg/injection, schedule: Q01DX005 (ip), vehicle: saline with Tween-80",100 % of control
same,T/C,"dose: 240.0 mg/kg/injection, schedule: Q01DX005 (ip), vehicle: saline with Tween-80",100 % of control
CCOc1cccc(/C=N/N=C2\C(=O)Nc3c(Cl)cc(Cl)cc32)c1O,T/C,"dose: 50.0 mg/kg/injection, schedule: Q01DX005 (ip), vehicle: saline with Tween-80",89 % of control
same,T/C,"dose: 100.0 mg/kg/injection, schedule: Q01DX005 (ip), vehicle: saline with Tween-80",92 % of control
same,T/C,"dose: 200.0 mg/kg/injection, schedule: Q01DX005 (ip), vehicle: saline with Tween-80",91 % of control
Cc1c2cccc1CSCc1cccc(c1C)CSC2,T/C,"dose: 50.0 mg/kg/injection, schedule: Q01DX009 (ip), vehicle: suspension in saline",99 % of control
same,T/C,"dose: 100.0 mg/kg/injection, schedule: Q01DX009 (ip), vehicle: suspension in saline",92 % of control
same,T/C,"dose: 200.0 mg/kg/injection, schedule: Q01DX009 (ip), vehicle: suspension in saline",100 % of control
CC1=C(C)C(=O)c2nn(C)nc2C1=O,T/C,"dose: 6.25 mg/kg/injection, schedule: Q01DX001 (ip), vehicle: saline",100 % of control
same,T/C,"dose: 12.5 mg/kg/injection, schedule: Q01DX001 (ip), vehicle: saline",98 % of control
same,T/C,"dose: 25.0 mg/kg/injection, schedule: Q01DX001 (ip), vehicle: saline",99 % of control
O=C1c2ccccc2C(=O)N1CCCN1CCOCCOCCN(CCCN2C(=O)c3ccccc3C2=O)CCOCCOCC1,T/C,"dose: 25.0 mg/kg/injection, schedule: Q04DX002 (ip), vehicle: saline + Tween-80 + alcohol",100 % of control
same,T/C,"dose: 50.0 mg/kg/injection, schedule: Q04DX002 (ip), vehicle: saline + Tween-80 + alcohol",104 % of control
same,T/C,"dose: 100.0 mg/kg/injection, schedule: Q04DX002 (ip), vehicle: saline + Tween-80 + alcohol",102 % of control and 95 % of control
CCOC(=O)c1cnc(Sc2ncccc2[N+](=O)[O-])nc1N,T/C,[3],95 % of control
same,T/C,"dose: 200.0 mg/kg/injection, schedule: Q04DX003 (ip), vehicle: saline",98 % of control
same,T/C,"dose: 400.0 mg/kg/injection, schedule: Q04DX003 (ip), vehicle: saline",92 % of control
CCC1CC(C)C(O)/C=C/C=C/CC(C)OC(=O)CC(O)C(OC)C1OC1OC(C)CC(O)(C(C)=O)C1O (stereo not drawn),T/C,"dose: 25.0 mg/kg/injection, schedule: Q01DX005 (ip), vehicle: Klucel (hydroxypropylcellulose) (HPC)",104 % of control
same,T/C,[1],104 % of control
same,T/C,[2],102 % of control
same,T/C,"dose: 200.0 mg/kg/injection, schedule: Q01DX005 (ip), vehicle: Klucel (hydroxypropylcellulose) (HPC)",101 % of control
CCCCCCCCCCCCCCCCOP(=O)([O-])OCC[N+](C)(C)C,T/C,"dose: 15.0 mg/kg/injection, schedule: Q01DX005 (ip), vehicle: saline",100 % of control
same,T/C,"dose: 30.0 mg/kg/injection, schedule: Q01DX005 (ip), vehicle: saline",100 % of control
same,T/C,"dose: 60.0 mg/kg/injection, schedule: Q01DX005 (ip), vehicle: saline",102 % of control and 103 % of control
CC(C)(C)OC(=O)O/N=C(\C#N)c1ccccc1,T/C,[4],90 % of control
same,T/C,[5],104 % of control
same,T/C,[6],100 % of control and 103 % of control
same,T/C,"dose: 200.0 mg/kg/injection, schedule: Q01DX009 (ip), vehicle: saline with Tween-80",100 % of control
CC1CN=C(c2ccc(NC(=O)Nc3ccc(C(=O)Nc4ccc(C5=NCC(C)N5)cc4)cc3)cc2)N1 (stereo not drawn),T/C,[4],195 % of control
same,T/C,[5],159 % of control and 213 % of control
same,T/C,"dose: 25.0 mg/kg/injection, schedule: Q04DX003 (ip), vehicle: saline with Tween-80",116 % of control
same,T/C,[6],95 % of control
same,T/C,"dose: 100.0 mg/kg/injection, schedule: Q04DX003 (ip), vehicle: saline with Tween-80",150 % of control
same,T/C,[3],163 % of control
